Experimental data reported in patent US20250296959A1, “B7-H3 TARGETING PEPTIDES AND CONSTRUCTS THEREOF” (Mariana Oncology Inc., priority 2024, published 2025).
Starred links: 1 amine or outer side, 2 acyl side, 3 side chain; linkers in the order of their positions; H or OH if unused. Positions of bridges follow the written chain, without caps; N, C: chain ends. Non-standard residues stand in square brackets, D forms with d. Residues, ends and D or L forms follow the SMILES beside them. Groups on a side chain read outwards from the residue. *: point of attachment. Ala(1-CH2CO2H-4-piperidyl) = N[C@@H](CC1CCN(CC(=O)O)CC1)C(=O)O; Ala(piperidin-4-yl) = O=C([C@H](CC1CCN([*:3])CC1)N[*:1])[*:2]; DOTA = O=C(O)CN1CCN(CC(=O)O)CCN(CC(=O)*)CCN(CC(=O)O)CC1; Phe(4-NHCONH2) = NC(=O)Nc1ccc(C[C@H](N)C(=O)O)cc1; Phe(4-COOH) = N[C@@H](Cc1ccc(C(=O)O)cc1)C(=O)O; Trp(5-F) = N[C@@H](Cc1c[nH]c2ccc(F)cc12)C(=O)O; X1 = C[C@@H](c1ccccc1)[C@H](N[*:1])C(=O)[*:2]; γGlu = O=C(O)[C@H](CCC(=O)[*:2])N[*:1]; 2Nal = N[C@@H](Cc1ccc2ccccc2c1)C(=O)O; Ala(4-THP) = N[C@@H](CC1CCOCC1)C(=O)O; hLeu(5-Me) = CC(C)(C)CC[C@H](N)C(=O)O; Val(3-OH) = CC(C)(O)[C@H](N)C(=O)O; Gly(cPr) = N[C@H](C(=O)O)C1CC1; pGlu = O=C1CC[C@@H](C(=O)O)N1; PEG4 = NCCOCCOCCOCCOCCC(=O)O; Tle = CC(C)(C)[C@H](N)C(=O)O; hLeu = CC(C)CC[C@H](N)C(=O)O; Nle = CCCC[C@H](N)C(=O)O; PEG2 = NCCOCCOCCC(=O)O; PEG1 = NCCOCCC(=O)O

Target: T1, human 4lg B7-H3 (Homo sapiens, UniProt Q5ZPR3)
T1 sequence (Q5ZPR3 29-534): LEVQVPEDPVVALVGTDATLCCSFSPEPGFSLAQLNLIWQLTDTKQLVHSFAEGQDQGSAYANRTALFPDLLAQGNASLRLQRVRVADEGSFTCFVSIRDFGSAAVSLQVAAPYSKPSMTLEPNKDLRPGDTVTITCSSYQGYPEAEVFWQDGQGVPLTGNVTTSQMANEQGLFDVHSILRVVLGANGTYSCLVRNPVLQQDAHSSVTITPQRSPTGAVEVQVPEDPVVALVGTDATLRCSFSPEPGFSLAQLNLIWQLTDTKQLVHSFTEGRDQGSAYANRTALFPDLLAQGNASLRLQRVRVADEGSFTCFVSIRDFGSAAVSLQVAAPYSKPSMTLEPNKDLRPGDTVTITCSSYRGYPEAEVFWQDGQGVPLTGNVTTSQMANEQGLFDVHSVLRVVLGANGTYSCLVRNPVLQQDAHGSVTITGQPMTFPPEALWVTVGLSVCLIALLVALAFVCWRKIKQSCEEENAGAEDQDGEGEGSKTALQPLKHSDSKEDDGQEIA
Assay: Affinity determination by surface plasmon resonance (SPR) to 4Ig B7-H3
Settings: 4Ig B7-H3

[1] = SPR KD—37° C., 37° C. flow cell temperature
[2] = SPR KD—25° C., 25° C. flow cell temperature

Row | Structure (SMILES) | Kd [1] | Kd [2]
1 | CC(=O)N[C@@H](CCC(C)C)C(=O)N[C@@H](Cc1ccc(O)cc1)C(=O)N[C@H]1CSSC[C@@H](C(=O)N[C@@H](Cc2c[nH]c3ccccc23)C(=O)N[C@@H](Cc2ccccc2)C(=O)N[C@H](C(=O)N[C@H](CCCCNC(=O)CN2CCN(CC(=O)O)CCN(CC(=O)O)CCN(CC(=O)O)CC2)C(N)=O)[C@@H](C)O)NC(=O)[C@H](Cc2ccc(O)cc2)NC(=O)[C@H](C(C)C)NC(=O)[C@H](CC(=O)O)NC(=O)[C@H](Cc2ccc(O)cc2)NC(=O)[C@H](CCCCN)NC(=O)CNC(=O)[C@H](C2CC2)NC1=O [compound 119, Ac-hLeu-Y-C-Cpg-G-K-Y-D-V-Y-C-W-F-Thr-dLys(DOTA)-CONH2] (Ac-[hLeu]YC[Gly(cPr)]GKYDVYCWFT[dK](DOTA)-NH2; disulfide 3-11) |  | 10 to 100 nM
2 | CC(=O)N[C@@H](CCC(C)C)C(=O)N[C@@H](Cc1ccc(O)cc1)C(=O)N[C@H]1CSSC[C@@H](C(=O)N[C@@H](Cc2ccc3ccccc3c2)C(=O)N[C@@H](Cc2ccccc2)C(=O)N[C@H](C(=O)N[C@H](CCCCNC(=O)CN2CCN(CC(=O)O)CCN(CC(=O)O)CCN(CC(=O)O)CC2)C(=O)O)[C@@H](C)O)NC(=O)[C@H](Cc2ccc(O)cc2)NC(=O)[C@H](C(C)C)NC(=O)[C@H](CC(=O)O)NC(=O)[C@H](Cc2ccc(O)cc2)NC(=O)[C@H](CCCCN)NC(=O)CNC(=O)[C@H](C(C)C)NC1=O [compound 159, Ac-hLeu-Y-C-V-G-K-Y-D-V-Y-C-2Nal-F-Thr-dLys(DOTA)-CONH2] (Ac-[hLeu]YCVGKYDVYC[2Nal]FT[dK](DOTA)-OH; disulfide 3-11) |  | 10 to 100 nM
3 | CC(=O)N[C@@H](CCC(C)C)C(=O)N[C@@H](Cc1ccc(O)cc1)C(=O)N[C@H]1CSSC[C@@H](C(=O)N[C@@H](Cc2c[nH]c3ccccc23)C(=O)N[C@@H](Cc2ccccc2)C(=O)N[C@H](C(=O)N[C@H](CCCCNC(=O)CN2CCN(CC(=O)O)CCN(CC(=O)O)CCN(CC(=O)O)CC2)C(N)=O)[C@@H](C)O)NC(=O)[C@H](Cc2ccc(O)cc2)NC(=O)[C@H](C2CC2)NC(=O)[C@H](CC(=O)O)NC(=O)[C@H](Cc2ccc(O)cc2)NC(=O)[C@H](CCCCN)NC(=O)CNC(=O)[C@H](C(C)C)NC1=O [compound 123, Ac-hLeu-Y-C-V-G-K-Y-D-Cpg-Y-C-W-F-Thr-dLys(DOTA)-CONH2] (Ac-[hLeu]YCVGKYD[Gly(cPr)]YCWFT[dK](DOTA)-NH2; disulfide 3-11) |  | 1 to 10 nM
4 | CC(=O)N[C@@H](CCC(C)C)C(=O)N[C@@H](Cc1ccc(O)cc1)C(=O)N[C@H]1CSSC[C@@H](C(=O)N[C@@H](Cc2c[nH]c3ccc(F)cc23)C(=O)N[C@@H](Cc2ccccc2)C(=O)N[C@H](C(N)=O)C(C)(C)O)NC(=O)[C@H](Cc2ccc(O)cc2)NC(=O)[C@H](C(C)C)NC(=O)[C@H](CC(=O)O)NC(=O)[C@H](CC2CCOCC2)NC(=O)[C@H](CC2CCN(C(=O)CCOCCOCCOCCOCCNC(=O)CN3CCN(CC(=O)O)CCN(CC(=O)O)CCN(CC(=O)O)CC3)CC2)NC(=O)CNC(=O)[C@H](C(C)(C)C)NC1=O [compound 382, Ac-hLeu-Y-C-Tbg-G-Pip(PEG4-DOTA)Ala-ThpA-D-V-Y-C-5FW-F-hydroxyVal-CONH2] (Ac-[hLeu]YC[Tle]G[Ala(piperidin-4-yl)]([PEG4-DOTA])[Ala(4-THP)]DVYC[Trp(5-F)]F[Val(3-OH)]-NH2; disulfide 3-11) | 1 to 10 nM | 
5 | CCCC[C@@H]1NC(=O)[C@H](C(C)C)NC(=O)[C@H](CC(=O)O)NC(=O)[C@H](Cc2ccc(C(=O)O)cc2)NC(=O)[C@H](CCCCNC(=O)CN2CCN(CC(=O)O)CCN(CC(=O)O)CCN(CC(=O)O)CC2)NC(=O)CNC(=O)[C@H](C(C)C)NC(=O)[C@@H](NC(=O)[C@H](Cc2ccc(O)cc2)NC(=O)[C@H](CCC(C)C)NC(C)=O)CSSC[C@@H](C(=O)N[C@@H](Cc2c[nH]c3ccc(F)cc23)C(=O)N[C@@H](Cc2ccccc2)C(=O)N2CCC[C@H]2C(N)=O)NC1=O [compound 302, Ac-hLeu-Y-C-V-G-Lys(DOTA)-4COOHPhe-D-V-Nle-C-5FW-F-Pro-CONH2] (Ac-[hLeu]YCVGK(DOTA)[Phe(4-COOH)]DV[Nle]C[Trp(5-F)]FP-NH2; disulfide 3-11) |  | 100 to 300 nM

The remaining lines, values ahead:

Row | Kd [1] | Kd [2] | Structure (SMILES)
6 | < 1 nM |  | CC(=O)N[C@@H](CCC(C)C)C(=O)N[C@@H](Cc1ccc(O)cc1)C(=O)N[C@H]1CSSC[C@@H](C(=O)N[C@@H](Cc2c[nH]c3ccc(F)cc23)C(=O)N[C@H](C(=O)N[C@H](C(=O)N[C@H](CCCCNC(=O)CN2CCN(CC(=O)O)CCN(CC(=O)O)CCN(CC(=O)O)CC2)C(=O)N[C@H](CCC(=O)O)C(=O)O)C(C)(C)O)[C@@H](C)c2ccccc2)NC(=O)[C@H](Cc2ccc(NC(N)=O)cc2)NC(=O)[C@H](C(C)C)NC(=O)[C@H](CC(=O)O)NC(=O)[C@H](CC2CCOCC2)NC(=O)[C@H](CC2CCNCC2)NC(=O)CNC(=O)[C@H](C(C)(C)C)NC1=O [compound 508, Ac-hLeu-Y-C-Tbg-G-PipAla-ThpA-D-V-Aph(Cbm)-C-5FW-[(2S, 3S)beta-Me-Phe]-hydroxyVal-dLys(DOTA)-dGlu-COOH] (Ac-[hLeu]YC[Tle]G[Ala(piperidin-4-yl)][Ala(4-THP)]DV[Phe(4-NHCONH2)]C[Trp(5-F)][X1][Val(3-OH)][dK](DOTA)[dE]-OH; disulfide 3-11)
7 | 10 to 100 nM |  | CC(=O)N[C@@H](CCC(C)(C)C)C(=O)N[C@@H](Cc1ccc(O)cc1)C(=O)N[C@H]1CSSC[C@@H](C(=O)N[C@@H](Cc2c[nH]c3ccc(F)cc23)C(=O)N[C@@H](Cc2ccccc2)C(=O)N[C@H](C(=O)N[C@H](CCCCNC(=O)CN2CCN(CC(=O)O)CCN(CC(=O)O)CCN(CC(=O)O)CC2)C(=O)O)C(C)(C)O)NC(=O)[C@H](Cc2ccc(O)cc2)NC(=O)[C@H](C(C)C)NC(=O)[C@H](CC(=O)O)NC(=O)[C@H](CC2CCOCC2)NC(=O)[C@H](CCCCN)NC(=O)CNC(=O)[C@H](C(C)(C)C)NC1=O [compound 397, Ac-hTba-Y-C-Tbg-G-K-ThpA-D-V-Y-C-5FW-F-hydroxyVal-dLys(DOTA)-COOH] (Ac-[hLeu(5-Me)]YC[Tle]GK[Ala(4-THP)]DVYC[Trp(5-F)]F[Val(3-OH)][dK](DOTA)-OH; disulfide 3-11)
8 | 1 to 10 nM |  | CC(C)CC[C@H](NC(=O)CCOCCNC(=O)CC[C@H](NC(=O)CN1CCN(CC(=O)O)CCN(CC(=O)O)CCN(CC(=O)O)CC1)C(=O)O)C(=O)N[C@@H](Cc1ccc(O)cc1)C(=O)N[C@H]1CSSC[C@@H](C(=O)N[C@@H](Cc2c[nH]c3ccc(F)cc23)C(=O)N[C@@H](Cc2ccccc2)C(=O)N[C@H](C(N)=O)C(C)(C)O)NC(=O)[C@H](Cc2ccc(O)cc2)NC(=O)[C@H](C(C)C)NC(=O)[C@H](CC(=O)O)NC(=O)[C@H](CC2CCOCC2)NC(=O)[C@H](CCCCN)NC(=O)CNC(=O)[C@H](C(C)(C)C)NC1=O [compound 395, DOTA-gE-PEG1-hLeu-Y-C-Tbg-G-K-ThpA-D-V-Y-C-5FW-F-hydroxyVal-CONH2] ({DOTA-γGlu-PEG1}-[hLeu]YC[Tle]GK[Ala(4-THP)]DVYC[Trp(5-F)]F[Val(3-OH)]-NH2; disulfide 3-11)
9 | 1 to 10 nM |  | CC(=O)N[C@@H](CCC(C)C)C(=O)N[C@@H](Cc1ccc(O)cc1)C(=O)N[C@H]1CSSC[C@@H](C(=O)N[C@@H](Cc2c[nH]c3ccc(F)cc23)C(=O)N[C@@H](Cc2ccccc2)C(=O)N[C@H](C(=O)N[C@H](CCC(=O)O)C(N)=O)C(C)(C)O)NC(=O)[C@H](Cc2ccc(O)cc2)NC(=O)[C@H](C(C)C)NC(=O)[C@H](CC(=O)O)NC(=O)[C@H](CC2CCOCC2)NC(=O)[C@H](CC2CCN(C(=O)CCOCCOCCNC(=O)CN3CCN(CC(=O)O)CCN(CC(=O)O)CCN(CC(=O)O)CC3)CC2)NC(=O)CNC(=O)[C@H](C(C)(C)C)NC1=O [compound 474, Ac-hLeu-Y-C-Tbg-G-Pip(PEG2-DOTA)Ala-ThpA-D-V-Y-C-5FW-F-hydroxyVal-dGlu-CONH2] (Ac-[hLeu]YC[Tle]G[Ala(piperidin-4-yl)]([PEG2-DOTA])[Ala(4-THP)]DVYC[Trp(5-F)]F[Val(3-OH)][dE]-NH2; disulfide 3-11)
10 | 1 to 10 nM |  | CC(C)CC[C@H](NC(=O)[C@@H]1CCC(=O)N1)C(=O)N[C@@H](Cc1ccc(O)cc1)C(=O)N[C@H]1CSSC[C@@H](C(=O)N[C@@H](Cc2c[nH]c3ccc(F)cc23)C(=O)N[C@@H](Cc2ccccc2)C(=O)N[C@H](C(=O)N[C@H](CCCCNC(=O)CN2CCN(CC(=O)O)CCN(CC(=O)O)CCN(CC(=O)O)CC2)C(=O)O)C(C)(C)O)NC(=O)[C@H](Cc2ccc(O)cc2)NC(=O)[C@H](C(C)C)NC(=O)[C@H](CC(=O)O)NC(=O)[C@H](CC2CCOCC2)NC(=O)[C@H](CC2CCNCC2)NC(=O)CNC(=O)[C@H](C(C)(C)C)NC1=O [Cpd #477, Pyroglutamate-hLeu-Y-C-Tbg-G-PipAla-ThpA-D-V-Y-C-5FW-F-hydroxyVal-dLys(DOTA)-COOH] ([pGlu][hLeu]YC[Tle]G[Ala(piperidin-4-yl)][Ala(4-THP)]DVYC[Trp(5-F)]F[Val(3-OH)][dK](DOTA)-OH; disulfide 4-12)
11 | 10 to 100 nM |  | CC[C@H](C)[C@@H]1NC(=O)[C@@H](NC(=O)[C@H](Cc2ccc(O)cc2)NC(=O)[C@H](CCC(C)C)NC(C)=O)CSSC[C@@H](C(=O)N[C@@H](Cc2c[nH]c3ccc(F)cc23)C(=O)N[C@@H](Cc2ccccc2)C(=O)N[C@H](C(=O)O)C(C)(C)O)NC(=O)[C@H](Cc2ccc(O)cc2)NC(=O)[C@H](C(C)C)NC(=O)[C@H](CC(=O)O)NC(=O)[C@H](CC2CCN(CC(=O)O)CC2)NC(=O)[C@H](CCCCNC(=O)CN2CCN(CC(=O)O)CCN(CC(=O)O)CCN(CC(=O)O)CC2)NC(=O)CNC1=O [compound 324, Ac-hLeu-Y-C-Ile-G-Lys(DOTA)-Pip(CH2COOH)Ala-D-V-Y-C-5FW-F-hydroxyVal-COOH] (Ac-[hLeu]YCIGK(DOTA)[Ala(1-CH2CO2H-4-piperidyl)]DVYC[Trp(5-F)]F[Val(3-OH)]-OH; disulfide 3-11)
